Values of other authors, collected in patent publication US20250188060A1, “ALPHA1A-ADRENERGIC RECEPTOR AGONISTS AND METHODS OF USE” (CuraSen Therapeutics, Inc., priority 2022, published 2025).
Where a name gives a salt, the structure may show the parent alone. Read-outs that look alike come from different tables or passages of the source.

Assays:
[1] = target: T1, α1A-adrenergic receptor (Homo sapiens, UniProt P35348); settings: as compared to noradrenaline; InsPs accumulation assay; Blue et al., Table 1; cited from earlier work
T1 sequence (P35348 1-466): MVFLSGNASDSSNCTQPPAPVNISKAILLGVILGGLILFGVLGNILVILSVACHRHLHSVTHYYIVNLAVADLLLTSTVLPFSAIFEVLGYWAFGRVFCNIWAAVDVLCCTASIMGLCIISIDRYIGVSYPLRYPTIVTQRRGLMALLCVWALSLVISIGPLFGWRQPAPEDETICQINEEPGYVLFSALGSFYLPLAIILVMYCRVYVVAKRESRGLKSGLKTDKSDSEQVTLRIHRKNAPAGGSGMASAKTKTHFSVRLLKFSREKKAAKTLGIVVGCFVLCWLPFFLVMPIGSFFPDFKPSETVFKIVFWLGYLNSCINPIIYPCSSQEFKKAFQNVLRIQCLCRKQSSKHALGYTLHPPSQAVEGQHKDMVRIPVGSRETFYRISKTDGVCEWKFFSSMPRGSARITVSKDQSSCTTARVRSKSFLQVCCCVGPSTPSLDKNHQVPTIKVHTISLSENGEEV

[2] = target: T1, α1A-adrenergic receptor; settings: as compared to noradrenaline; FLIPR assay; Blue et al., Table 1; cited from earlier work

Structure (SMILES) | intrinsic activity [1] | intrinsic activity [2]
Cc1c(OCC2=NCCN2)ccc(Cl)c1NS(C)(=O)=O [RO 115-1240 (dabuzalgron) free base, dabuzalgron] | 0.31 | 
Cc1c(OCC2=NCCN2)ccc(Cl)c1NS(C)(=O)=O [RO 115-1240 (dabuzalgron) HCl salt, dabuzalgron] | 0.27 | 0.51
